{"source": "patent US12022844B2", "about": "“Nutritional composition, food/drink composition using nutritional composition, and modified milk powder using nutritional composition” (priority 2018, dated 2024)", "key": {"[1]": {"system": "Bifidobacterium breve ATCC15700", "assay": "Single bacterial culturing with HMO as sugar source, OD650", "format": "cell-based", "details": "sugar source 2%, 8 h, Table 6", "description": "(§1) A10% solution of glucose (manufactured by Nakarai Tesque Inc.), and 2′-FL ((≥95%) Funakoshi, available from sigma), and LNnT (manufactured by ELICITYL) as examples of HMOs was prepared with ion exchanged water, and was subjected to sterile filtration using Millex-GV (SLGV033RS).\n(§2) Lactobacilli MRS Broth (BD) (0.05% L-Cysteine Hydrochloride for Bacteria of the genus Bifidobacterium) was added to strains of Table 1 below (bacteria belonging to Bifidobacterium bifidum) and Table 2 below. After a sterilization treatment, 3% of the bacterial solution was inoculated, and anaerobically cultured (pre-pre cultured) at 37° C. for 16 h.\n(§3) The following day, 1% glucose was added to a modified BL agar medium (“Studies on Bifidobacteria” by Tomotari Mitsuoka, p. 306, Japan Bifidus Foundation, issued in 1994) noted in Table 3, for preparation. After a sterilization treatment, 3% of the pre-pre cultured bacterial solution was inoculated, and anaerobically pre-cultured (pre-cultured) at 37° C. for 12 h.\n(§4) The pre-cultured bacterial solution was collected and washed once with a sterile physiological saline solution. Then, mass-up was performed to an equal volume with the modified BL agar medium (“Studies on Bifidobacteria” by Tomotari Mitsuoka, p. 306, Japan Bifidus Foundation, issued in 1994) noted in Table 3 to prepare a suspended bacterial solution.\n(§5) The modified BL agar medium (“Studies on Bifidobacteria” by Tomotari Mitsuoka, p. 306, Japan Bifidus Foundation, issued in 1994) noted in Table 3 was prepared at a capacity of 60%, and was subjected to an autoclave sterilization treatment. Then, 40% of each sugar solution prepared in (1) was aseptically added so as to prepare a medium with a sugar concentration of 4%.\n(§6) The medium prepared in the above (3) was dispensed at a capacity that is half the capacity for culturing in a 96-well plate, and the bacterial solution prepared in the above (2) was dispensed at a remaining half capacity such that the bacterial solution had 6%. Then, a final sugar concentration was set to 2%. The plate into which the bacterial solution was dispensed was anaerobically cultured at 37° C. for 8 h.\n(§7) OD650 was measured from each well in the plates in the above (4) and the above (5) before (0 h) culturing and after (8 h) culturing, by MICROPLATE READER SH-9000 (manufactured by CORONA ELECTRIC). After turbidity measurement, microbial cells were collected, and DNA extraction was performed. After the DNA extraction, the number of proliferating bacteria of Bifidobacteria/lactobacilli was analyzed by using the bacterial species-specific primer noted in Table 4, by a quantitative PCR method (see “Structural analysis of intestinal flora”—analysis of bacterial flora in human feces using quantitative PCR—by Kouichi Watanabe, Enterobacteriological journal, 20:35-42, 2006).\n(§8) Regarding strains in Table 2, each strain was cultured as a single bacterium by 2′-FL or LNnT (HMOs) as a sugar source, and OD650 was measured. The results for 2′-FL are noted in Table 6 below, and the results for LNnT are noted in Table 7 below."}, "[2]": {"system": "Bifidobacterium longum subsp infantis ATCC15697", "assay": "Single bacterial culturing with HMO as sugar source, OD650", "format": "cell-based", "details": "ATCC 156971, sugar source 2%, 8 h, Table 6", "description": "as §1, §2, §3, §4, §5, §6, §7, §8"}}, "data": [{"substance": "2′-fucosyllactose [2′-FL]", "values": [{"measurement": "OD650 increase value", "setting": "[1]", "value": 0.041}, {"measurement": "OD650 increase value", "setting": "[2]", "value": 0.344}]}]}
